Laboratory results published in US11505521B2 (Biothea Pharma, Inc., priority 2018, dated 2022).
Values after ≈ are worked out from the molar mass of the structure shown. Where two headings read alike, the source gives them in different places.

Columns and labels:
[1] = physchem; settings: n-octanol / pH 3.47 buffer
Description: (§1) The tests were conducted using Sartorius balances (Model SQP), a Thermo HPLC (UltiMate 3000 System, UV Wavelength: 205 nm), and Phenomenex Luna columns (5 μm C18 (2), 4.6×250 mm). The column temperature was 40° C. and the autosampler temperature was room temperature. The injection volume was 5 μL.
(§2) Mobile Phase A was prepared by weighing 4.0 g tetramethylammonium bisulfate (MERYER, Batch No. 77957139) and 1.1 sodium 1-heptasulfonate (Admas-beta, Batch No. P1343755), and transferring the materials to a flask. 2 mL of 0.1 mol/L EDTA solution (Brand: Sinopharm Chemical Reagent Co., Ltd., Batch No. 20150410) was added to the flask and the volume was adjusted to 950 mL using water. The solution was mixed and adjusted to a pH of 3.5 with 0.1N sodium hydroxide solution (Brand: Enox, Batch No. 20161201). Mobile Phase B was prepared using ethanol. The isocratic elution was used in a proportion of A/B of 85/15. The run time was 8 minutes.
A hydrogen disodium phosphate solution was prepared by weighing 7.1 g of hydrogen disodium phosphate (Brand: Sinopharm Chemical Reagent Co., Ltd., Batch No. 20150910). A citric acid solution was prepared by weighing 5.25 g of hydrated citric acid (Brand: General-Reagent, Batch No. 5949-29-1) and dissolving it in 1000 mL of water. A pH 3.47 buffer solution was prepared by adjusting the pH of the hydrogen disodium phosphate solution to 3.47 with the citric acid solution. An n-octanol buffer solution was prepared by mixing 100 mL of n-octanol (Brand: Chinasun Specialty Products Co., Ltd., Batch No. 20160601) and 100 mL of the pH 3.47 buffer solution, vibrated for 24 hours, which sat for an hour to separate the n-octanol phase and the pH 3.47 buffer phase.
10 mg of the sample was dissolved in 10 mL of the saturated n-octanol solution and mixed completely. 10 mL of the saturated pH 3.47 buffer solution was added and vortexed at 3000 r/min for 1 hour. 1 mL of solution was pipetted from the n-octanol and pH 3.47 phase after an hour. A standard solution was prepared containing 1 mg/mL of the standard in diluent. An LOQ solution was prepared from about 0.1% of the standard solution. An n-octanol phase solution was diluted with 1 mL of methanol to test. The pH 3.47 phase solution was injected directly. The partition coefficient was calculated using the following formula:
[formula] wherein Co is the equilibrium concentration of solute in oil phase, and Cw is the equilibrium concentration of solute in water phase.

[2] = physchem
Description: The tests were conducted using Sartorius balances (Model SQP) and a potentiometric titrator (Brand: Methrom, Model No. 905 Titrando). 0.17 g of the sample was weighed and transferred into a 50 mL volumetric flask with the remainder of the volume comprising deonized water. The solution was mixed. The solution was titrated with a 0.1 mol/L NaOH solution using a pH indicator to indicate the end point.

[3] = physchem; settings: water; for Solubility: 25±2° C.
Description: as §1, §2
A standard solution was used comprising 10 mg of the standard dissolved in 10 mL of water. The test solution solutions were prepared and water was added at 25±2° C. Every 5 minutes, the solution was sonicated for 30 seconds. The dissolution was observed within 30 minutes to make sure the solution was saturated. The solution was filtered through a 0.45 μm membrane and the solution was diluted to test.

[4] = Description: The procedure for the various conditions is set forth below.
Standard: 20 mg of sample was weighed and dissolved in a 50 mL volumetric flask, diluted to the required volume with diluents, and mixed well.
Acid Degradation: 20 mg of sample was weighed and placed in a 50 mL volumetric flask. 2 mL of 2.0 mol/L HCl was added to the flask. The flask was placed in a water bath at 40° C. for 7 days.
Alkaline Degradation: 20 mg of sample was weighed and placed in a 50 mL volumetric flask. 2 mL of 0.05 mol/L NaOH was added to the flask. The flask was stored at room temperature for 24 hours.
Oxidation: 20 mg of sample was weighed and placed in a 50 mL volumetric flask. 2 mL of 10% H2O2 was added to the flask. The flask was placed in a water bath at 40° C. for 44 hours.
Thermal Degradation (solution, 80° C.): 20 mg of sample was weighed and dissolved in a 50 mL volumetric flask, diluted to the required volume with diluents, and mixed well. The flask was placed in a water bath at 80° C. for 46 hours.
Thermal Degradation (solid, 80° C.): 120 mg of sample was placed in an oven at 80° C. for 7 days.
The appearance and purity of the samples were test.

[5] = water, 25° C.
Description: The sample was dissolved and diluted to the volume with water and mixed well. The sample was left in an oven at 25° C., and samples were collected at 0 hours, 24 hours, 48 hours, 72 hours, 96 hours, and 120 hours. The diluent (mobile phase) used for the study was prepared by mixing about 1.36 g of potassium dihydrogen orthophosphate and 1.74 g of dipotassium hydrogen orthophosphate in a 1000 mL volumetric flask, and adjusting the pH to 3.0 with orthophosphoric acid. The appearance and purity of the samples were tested.

[6] = 20 mg in 20 mL water, 25° C.
Description: The tests were conducted using Sartorius balances (Model SQP) and a pH meter (Brand: INESA, Model No. PHS-3E). 20 mg of the sample was weighed and transferred into a 20 mL volumetric flask with the remainder of the volume comprising water. The solution was mixed. The pH meter was calibrated with pH 4.0 and pH 6.8 standard buffer solutions at 25° C.

[7] = Acid Degradation: 2.0 mol/L HCl, 40° C., 7 days
[8] = Alkaline Degradation: 0.05 mol/L NaOH, room temperature, 24 hours
[9] = Oxidation: 10% H2O2, 40° C., 44 hours
[10] = Thermal Degradation (solid): 80° C., 7 days
[11] = Thermal Degradation (solution): 80° C., 46 hours

CNC[C@H](O)c1ccc(O)c(O)c1 [epinephrine bitartrate]
LogP ([1]; pH 3.47): -2.95
pKa ([2]; deionized water): 4.2
solubility at 30 min ([3]; 25 °C, thermodynamic from solid): 827 mg/mL

CNC[C@H](O)c1ccc(O)c(O)c1 [epinephrine malonate]
Appearance [4, 7]: Colorless liquid
Purity [4, 7]: 91.96%
Appearance [4, 8]: Brown liquid
Purity [4, 8]: 98.68%
Appearance [4, 9]: Colorless liquid
Purity [4, 9]: 97.04%
Appearance ([4]; Standard (no degradation)): Off-white powder
Purity ([4]; Standard (no degradation)): 99.89%
Appearance [4, 10]: Off-white powder
Purity [4, 10]: 99.10%
Appearance [4, 11]: Colorless liquid
Purity [4, 11]: 96.04%
LogP [1]: −3.00
pKa ([2]; titrated with 0.1 mol/L NaOH): 5.47
Appearance ([5]; 0 hours): Colorless liquid
Purity ([5]; 0 hours): 99.97%
Appearance ([5]; 24 hours): Colorless liquid
Purity ([5]; 24 hours): 99.79%
Appearance ([5]; 48 hours): Colorless liquid
Purity ([5]; 48 hours): 99.63%
Appearance ([5]; 72 hours): Colorless liquid
Purity ([5]; 72 hours): 99.51%
Appearance ([5]; 96 hours): Colorless liquid
Purity ([5]; 96 hours): 99.42%
Appearance ([5]; 120 hours): Colorless liquid
Purity ([5]; 120 hours): 99.34%
Solubility [3]: 1142.7 mg/mL (≈ 6240 mM)

epinephrine maleate
LogP [1]: −3.01
pH [6]: 4.48
pKa ([2]; titrated with 0.1 mol/L NaOH): 6.12
Solubility [3]: 82.7 mg/mL
